This is an account of results in PMC10983009 (Journal of Medicinal Chemistry, 2024).

The nature of data set [1]: In vivo PK exposure in mouse model. As to conditions: male, NOD-SCID, po, 25 mg/kg.
Data set [2] is described as follows: Caco-2 permeability assay. Type of data set: in vitro ADME. As to conditions: human, Caco-2, pH 7.4.
The test system of a further data set is Caco-2 cells. As to conditions: literature value, cited from earlier work.
The conditions of data set [3]: compound remaining, literature value; cited from earlier work.
A further data set deals with TNIK(h) (Homo sapiens, UniProt Q9UKE5). As to conditions: at 1 μM; cited from earlier work.
For data set [4] the following is noted: compound remaining, literature value; cited from earlier work. This is another data set of the same source.
The next data set deals with DDR1(h) (Homo sapiens, UniProt Q08345). As to conditions: at 1 μM; cited from earlier work.
Data set [5] concerns the target Full Kinase Panel (422-member kinase set). Put plainly: Eurofins Full Kinase Panel KinaseProfiler, whole panel. As to conditions: at 1 μM. Type of data set: biochemical.
Data set [6] in a line: Liver microsomal metabolic stability assay. In kind it is in vitro ADME, human. As to conditions: compound remaining after 60 min at 37 °C, 1 μM.
Data set [7] can be described thus: Liver microsomal metabolic stability assay. Type of data set: in vitro ADME, CD-1 mouse (male). As to conditions: compound remaining after 60 min at 37 °C, 1 μM. In general terms: Liver microsomes are vesicles of endoplasmic reticulum, rich in cytochrome P450 enzymes.
A further data set concerns the target T1, ALK4/ACVR1β (Homo sapiens, UniProt P36896).
T1 sequence (P36896 24-505): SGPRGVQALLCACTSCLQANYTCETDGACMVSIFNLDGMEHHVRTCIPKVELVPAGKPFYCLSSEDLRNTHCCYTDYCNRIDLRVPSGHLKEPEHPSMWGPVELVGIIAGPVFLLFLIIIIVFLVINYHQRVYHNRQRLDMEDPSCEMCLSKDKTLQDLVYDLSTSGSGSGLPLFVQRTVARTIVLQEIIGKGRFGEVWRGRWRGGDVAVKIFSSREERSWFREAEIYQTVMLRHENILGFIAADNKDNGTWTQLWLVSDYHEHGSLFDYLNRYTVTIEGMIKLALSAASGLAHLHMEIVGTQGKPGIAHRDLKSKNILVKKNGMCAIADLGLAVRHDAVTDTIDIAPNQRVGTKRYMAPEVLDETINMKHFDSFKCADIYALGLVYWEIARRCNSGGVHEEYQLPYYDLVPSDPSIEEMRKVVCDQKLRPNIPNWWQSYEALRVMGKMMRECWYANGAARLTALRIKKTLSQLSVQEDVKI
Put plainly: Radiometric in vitro kinase assay.

Data set [8] concerns H3.3K27M, ACVR1^R206H mutant HSJD-DIPG-007 cells. As to conditions: 25 mg/kg for 28 days; cited from earlier work.

Where “and” joins values, the source holds several entries; their conditions need not be identical. Equal entries are not always repeated. Where two headings read alike, the source gives them in different places. Marks after values point to notes of the source that are not given here. Some results are limits rather than exact numbers.

DDR1(h), sequence (Q08345 19-913): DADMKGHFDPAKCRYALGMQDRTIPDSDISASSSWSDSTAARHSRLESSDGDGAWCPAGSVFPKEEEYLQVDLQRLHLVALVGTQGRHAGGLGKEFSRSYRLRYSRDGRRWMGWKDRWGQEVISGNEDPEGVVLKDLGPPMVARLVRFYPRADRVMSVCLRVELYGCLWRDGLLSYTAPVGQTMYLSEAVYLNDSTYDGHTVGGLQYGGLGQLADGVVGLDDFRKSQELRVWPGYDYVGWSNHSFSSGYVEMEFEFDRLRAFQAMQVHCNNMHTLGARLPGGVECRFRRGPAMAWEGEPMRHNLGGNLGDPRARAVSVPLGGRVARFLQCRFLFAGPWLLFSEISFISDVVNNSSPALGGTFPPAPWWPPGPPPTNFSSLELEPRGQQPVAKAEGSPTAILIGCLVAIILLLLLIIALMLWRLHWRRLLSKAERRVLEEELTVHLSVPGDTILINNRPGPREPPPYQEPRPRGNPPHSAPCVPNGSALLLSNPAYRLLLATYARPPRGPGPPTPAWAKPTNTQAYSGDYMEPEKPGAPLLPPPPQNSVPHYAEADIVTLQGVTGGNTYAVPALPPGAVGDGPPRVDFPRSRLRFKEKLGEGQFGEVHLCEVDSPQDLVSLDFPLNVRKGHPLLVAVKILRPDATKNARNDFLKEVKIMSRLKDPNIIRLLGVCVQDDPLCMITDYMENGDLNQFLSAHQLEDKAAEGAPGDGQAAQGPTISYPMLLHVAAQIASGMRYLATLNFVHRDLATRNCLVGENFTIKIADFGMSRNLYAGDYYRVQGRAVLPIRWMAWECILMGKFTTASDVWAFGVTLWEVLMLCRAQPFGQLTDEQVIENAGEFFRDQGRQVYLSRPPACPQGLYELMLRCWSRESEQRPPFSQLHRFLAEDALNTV
TNIK(h), sequence (Q9UKE5 whole entry): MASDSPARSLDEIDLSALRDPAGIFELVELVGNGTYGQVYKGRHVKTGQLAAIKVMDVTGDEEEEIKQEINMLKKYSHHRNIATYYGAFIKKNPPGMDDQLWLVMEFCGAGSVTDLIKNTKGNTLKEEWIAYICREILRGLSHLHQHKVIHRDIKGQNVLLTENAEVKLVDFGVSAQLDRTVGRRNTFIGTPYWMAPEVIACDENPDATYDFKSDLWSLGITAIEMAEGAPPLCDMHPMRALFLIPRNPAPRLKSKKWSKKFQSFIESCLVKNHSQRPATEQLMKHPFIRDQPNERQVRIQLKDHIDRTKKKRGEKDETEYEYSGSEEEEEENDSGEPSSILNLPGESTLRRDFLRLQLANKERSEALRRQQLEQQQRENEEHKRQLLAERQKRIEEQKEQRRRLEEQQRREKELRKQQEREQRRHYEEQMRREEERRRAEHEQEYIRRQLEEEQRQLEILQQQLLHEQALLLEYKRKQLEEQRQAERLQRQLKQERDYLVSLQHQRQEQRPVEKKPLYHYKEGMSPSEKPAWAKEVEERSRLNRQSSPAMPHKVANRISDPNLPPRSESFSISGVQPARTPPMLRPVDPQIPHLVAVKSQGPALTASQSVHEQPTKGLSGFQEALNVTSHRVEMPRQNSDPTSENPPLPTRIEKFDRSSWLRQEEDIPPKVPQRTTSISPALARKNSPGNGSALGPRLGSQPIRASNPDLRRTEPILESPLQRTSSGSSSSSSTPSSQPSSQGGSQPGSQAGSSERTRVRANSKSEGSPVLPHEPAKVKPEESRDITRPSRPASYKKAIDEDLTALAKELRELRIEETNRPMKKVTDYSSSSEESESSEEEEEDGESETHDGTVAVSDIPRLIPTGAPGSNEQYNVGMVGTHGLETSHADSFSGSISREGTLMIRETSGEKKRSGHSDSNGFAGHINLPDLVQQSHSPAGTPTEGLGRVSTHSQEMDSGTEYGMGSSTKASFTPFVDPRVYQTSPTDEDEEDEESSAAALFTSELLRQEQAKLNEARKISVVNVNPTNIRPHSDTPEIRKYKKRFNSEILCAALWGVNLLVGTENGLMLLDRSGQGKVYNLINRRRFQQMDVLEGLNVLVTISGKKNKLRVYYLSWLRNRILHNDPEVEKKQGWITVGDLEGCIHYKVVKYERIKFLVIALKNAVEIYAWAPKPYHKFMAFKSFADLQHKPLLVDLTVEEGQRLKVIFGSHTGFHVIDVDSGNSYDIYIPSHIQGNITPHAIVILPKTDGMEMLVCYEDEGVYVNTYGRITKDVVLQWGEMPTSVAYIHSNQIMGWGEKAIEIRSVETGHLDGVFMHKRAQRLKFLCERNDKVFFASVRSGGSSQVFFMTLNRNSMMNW

Take `COc1cc(-c2cncc3c2CCOc2cc(N4CCN(C)CC4)ccc2-3)cc(OC)c1OC` [Compound M4K2281, 9-(4-Methylpiperazin-1-yl)-4-(3,4,5-trimethoxyphenyl)-5,6-dihydrobenzo[2,3]oxepino[4,5-c]pyridine]: the concentration at 24 h in data set [1] stood at 0 nM.

Take `COc1cc(-c2cncc3c2CN(C)Cc2cc(N4CCN(C)CC4)ccc2-3)cc(OC)c1OC` [Compound M4K2306, 6-Methyl-9-(4-methylpiperazin-1-yl)-4-(3,4,5-trimethoxyphenyl)-6,7-dihydro-5H-benzo[c]pyrido[3,4-e]azepine]: the recovery at 2 h, 5 μM in [2] is less than 15%.

Take `COc1cc(-c2cncc(-c3ccc(N4CCNCC4)cc3)c2C)cc(OC)c1OC` [Compound M4K2009]: the “Caco-2 Permeability Assay Papp_AB” value in the data set on Caco-2 cells (A to B) was 5.4 ^a 10^–6 cm/s. In addition, the “Caco-2 Permeability Assay Papp_BA” value with Caco-2 cells (B to A) is 1.5 ^a 10^–6 cm/s. Moreover, in [3], the “Microsomal Stability Assay MLM (%)” value is 65 ^a % and 65%. In addition, at TNIK(h), the “inhibition of TNIK” value is on record as “almost complete inhibition”. Further, in [4], the “Microsomal Stability Assay HLM (%)” value is 71 ^a % and 71%. The “inhibition of DDR1” value on DDR1(h) is “almost complete inhibition”.

For `COc1cc(-c2cncc3c2CN(C)Cc2cc(N4CCNCC4)ccc2-3)cc(OC)c1OC` [Compound M4K2304, 6-Methyl-9-(piperazin-1-yl)-4-(3,4,5-trimethoxyphenyl)-6,7-dihydro-5H-benzo[c]pyrido[3,4-e]azepine], the “kinases inhibited by more than 50%” value in data set [5] came to 3%. Also, the “Microsomal Stability Assay HLM (%)” value in data set [6] is given as greater than 70%. For the same molecule, in data set [7], the “Microsomal Stability Assay MLM (%)” value was greater than 70%. The same molecule returned an IC50 on ALK4/ACVR1β of 1180 nM. The same molecule gave a recovery at 2 h, 5 μM in data set [2] of less than 15%.

Regarding `COc1cc(-c2cc(-c3ccc(N4CCNCC4)cc3)cnc2C)cc(OC)c1OC` [LDN-214117], in [8], the “survival of mice bearing orthotopic xenografts” value was “extended survival”.

A word on the IC50: it is the concentration that gives 50% inhibition.
